This note sets out measurements from patent US6919314B1, “Bioactive whey protein hydrolysate” (New Zealand Dairy Board, priority 1998, dated 2005).

Marks after values point to notes of the source that are not given here. Ends that are not written are not given here. Peptide text beside a SMILES is read from it.

One assay has as its target T1, rabbit lung ACE (Oryctolagus cuniculus, UniProt P12822).
T1 construct: reagents from Sigma product 305-10) consisting of rabbit lung ACE; purchased Sigma Chemical Corporation, St Louis, Mo., USA 305-10; host or cells: rabbit lung (tissue-derived enzyme)
T1 sequence (P12822 34-1310): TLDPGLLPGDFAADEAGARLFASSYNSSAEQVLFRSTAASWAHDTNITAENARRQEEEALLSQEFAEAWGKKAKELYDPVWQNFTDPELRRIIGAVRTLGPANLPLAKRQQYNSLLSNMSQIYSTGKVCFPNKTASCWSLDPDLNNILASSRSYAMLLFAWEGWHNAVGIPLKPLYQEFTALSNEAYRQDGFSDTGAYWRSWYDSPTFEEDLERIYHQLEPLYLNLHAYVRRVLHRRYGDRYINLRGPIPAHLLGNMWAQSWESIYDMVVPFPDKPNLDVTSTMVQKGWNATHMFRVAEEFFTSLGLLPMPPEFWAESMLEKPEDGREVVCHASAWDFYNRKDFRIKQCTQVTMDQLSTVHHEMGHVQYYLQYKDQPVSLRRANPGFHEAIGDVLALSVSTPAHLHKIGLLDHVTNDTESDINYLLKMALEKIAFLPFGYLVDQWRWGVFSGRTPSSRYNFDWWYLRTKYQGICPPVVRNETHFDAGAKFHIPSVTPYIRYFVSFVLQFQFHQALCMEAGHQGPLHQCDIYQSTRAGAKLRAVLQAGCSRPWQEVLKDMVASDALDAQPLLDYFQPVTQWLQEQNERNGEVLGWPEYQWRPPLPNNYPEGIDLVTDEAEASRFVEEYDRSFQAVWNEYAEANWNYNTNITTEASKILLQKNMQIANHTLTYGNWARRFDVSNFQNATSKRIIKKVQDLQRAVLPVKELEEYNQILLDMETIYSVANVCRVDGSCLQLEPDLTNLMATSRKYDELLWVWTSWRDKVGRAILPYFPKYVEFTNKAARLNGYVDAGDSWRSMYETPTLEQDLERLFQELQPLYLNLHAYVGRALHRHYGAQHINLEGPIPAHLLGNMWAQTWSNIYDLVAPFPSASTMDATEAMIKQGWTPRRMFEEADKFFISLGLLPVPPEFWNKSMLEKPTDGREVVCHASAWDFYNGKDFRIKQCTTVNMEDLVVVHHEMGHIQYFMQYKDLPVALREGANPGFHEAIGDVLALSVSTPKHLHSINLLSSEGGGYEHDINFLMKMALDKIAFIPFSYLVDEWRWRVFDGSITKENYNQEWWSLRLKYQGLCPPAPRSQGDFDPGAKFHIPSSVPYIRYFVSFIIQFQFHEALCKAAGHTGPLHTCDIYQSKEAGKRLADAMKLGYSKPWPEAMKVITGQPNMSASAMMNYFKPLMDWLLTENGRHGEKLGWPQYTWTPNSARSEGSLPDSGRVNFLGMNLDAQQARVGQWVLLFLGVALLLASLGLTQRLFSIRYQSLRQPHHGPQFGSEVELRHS
Put plainly: ACE-I activity using FAPGG as substrate (method of Cushman & Cheung). It is filed as biochemical. The conditions noted are these: colorimetric substrate FAPGG; activity measured with that of another peptide of unknown origin. The method, then:
A pH of 7.0 and an enzyme substrate ratio of 0.3% w/w was used for the hydrolysis. The hydrolysate was adjusted to pH 5.0 and heated at 65° C. for 30 min to inactivate the enzyme. […] ACE-I activities are expressed as the amount of material (g/L) needed to reduce the activity of the ACE-I enzyme by 50%.
Each fraction was lyophilised and the amount of peptide material present was measured gravimetrically. […] If a peptide inhibits ACE, the change in absorbance at 340 nm is reduced. […] The eluate was collected using the fraction collector set to collect 0.5 min fractions.
Samples from each fraction were analysed using an analytical reverse-phase HPLC column, and those fractions containing a single, identical peptide were pooled. Each pooled fraction was lyophilised and the weight of the peptide present was determined gravimetrically. The purified peptides were assayed for ACE-I activity as before and the IC50 was calculated for […] individual peptide.
As for “Leu-Phe-Arg-Glu (LFRE; not fully specified; printed: Leu-Phe-Arg-Glu) [LFRQ, origin αs1-CN(136-139)]”, the “Activity (IC50 in mg L^−1)” value is on record as 17^h mg L^−1.

Staying with this assay, now noted: purified peptide; colorimetric substrate FAPGG; read-out: Activity (IC50 in mg L^−1) (converted).
Usually IC50 stands for the concentration at which inhibition is half-maximal. In the case of `CC(C)C[C@H](N)C(=O)N[C@@H](Cc1ccccc1)C(=O)N[C@@H](CO)C(=O)N[C@@H](Cc1c[nH]cn1)C(=O)O` [LFSH, Leu-Phe-Ser-His] (H-LFSH-OH; N-terminus and C-terminus assumed), the IC50 is 59.7 µM.

`CSCC[C@H](N)C(=O)N[C@@H](CCCCN)C(=O)NCC(=O)O` [MKG, Met-Lys-Gly] (H-Met-Lys-Gly-OH; N-terminus and C-terminus assumed): the half-inhibitory concentration (IC50) is 71.8 µM.

As to ALPMH [ALPMH, Ala-Leu-Pro-Met-His], the IC50 is 21.1 µM.

“ILKEKH [ILKEKH, Ile-Leu-Lys-Glu-Lys-His]”: the IC50 is 26.1 µM.

For the compound LDIQK [LDIQK, Leu-Asp-Ile-Gln-Lys], the IC50 is 27.6 µM.

As to “LHLPLP [LHLPLP, Leu-His-Leu-Pro-Leu-Pro]”, the 50% inhibitory concentration (IC50) is 10.2 µM.

In the case of LIVTQ [LIVTQ, Leu-Ile-Val-Thr-Gln], the half-inhibitory concentration (IC50) is 29.7 µM.

As to LVYPFPGPIPNSLPQNIPP, the half-inhibitory concentration (IC50) is 9.22 µM.

On to “VTSTAV [VTSTAV, Val-Thr-Ser-Thr-Ala-Val]”, for which the IC50 was 52 µM.

In another assay the test system is spontaneously hypertensive rats (SHR/N). Put plainly: In vivo blood pressure in spontaneously hypertensive rats (tail cuff). The conditions noted are these: 30 mg/Kg bodyweight/day for 8 weeks, compared with the hydrolysate. Also noted: species or system rat.
Description: The rat strain has been specifically selected for their development of high blood pressure on maturing, and is used extensively to monitor the effect of blood pressure lowering agents.
Eight week old rats were individually housed in plastic rat cages and kept in temperature controlled facilities throughout the trial. They had unlimited access to water and were fed commercial rat chow ad libitum. The test products were given orally as a single daily dose for 8 weeks during which time changes in blood pressure were monitored.
Regarding `C[C@H](CS)C(=O)N1CCC[C@H]1C(=O)O` [captopril], the systolic blood pressure result is “effect of the hydrolysate was not as great as that of captopril”.
